Calls of active or inactive are those of the source.
Experiments:
[1] = microbe, parasite or virus in culture; type: functional; conditions: Mycobacterium tuberculosis
[2] = THP-1 cell cytotoxicity, dose response, cytotoxicity control for non-replicating M. tuberculosis project (AID 489025); type: functional
[3] = Vero E6 cell cytotoxicity, dose response, cytotoxicity control for non-replicating M. tuberculosis project, secondary assay (AID 492998); type: functional, VeroE6; conditions: Vero C1008
[4] = cells; type: functional
[5] = molecular target: T1, High affinity choline transporter 1 (Homo sapiens, UniProt Q9GZV3); experiment: human choline transporter blockers, potency – cell-based, 5-point CRC, membrane potential dye, dose response (AID 504840); type: functional
T1 sequence (Q9GZV3 whole entry): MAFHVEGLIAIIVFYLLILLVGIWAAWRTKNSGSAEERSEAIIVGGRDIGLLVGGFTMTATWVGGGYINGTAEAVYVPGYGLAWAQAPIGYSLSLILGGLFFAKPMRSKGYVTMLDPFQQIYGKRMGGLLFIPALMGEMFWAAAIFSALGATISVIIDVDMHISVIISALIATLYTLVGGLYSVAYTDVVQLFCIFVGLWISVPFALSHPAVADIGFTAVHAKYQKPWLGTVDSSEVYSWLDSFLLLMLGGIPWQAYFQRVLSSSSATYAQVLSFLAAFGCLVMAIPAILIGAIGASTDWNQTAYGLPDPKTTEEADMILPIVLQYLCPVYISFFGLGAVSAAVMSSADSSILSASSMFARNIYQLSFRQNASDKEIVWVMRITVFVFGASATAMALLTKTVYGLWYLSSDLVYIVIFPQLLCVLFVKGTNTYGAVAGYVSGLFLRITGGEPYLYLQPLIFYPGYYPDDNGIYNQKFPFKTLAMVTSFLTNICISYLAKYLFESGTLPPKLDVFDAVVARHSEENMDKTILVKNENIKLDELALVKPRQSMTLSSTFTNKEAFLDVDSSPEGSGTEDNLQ

[6] = molecular target: T2, Cytochrome P450 3A4 (Homo sapiens, UniProt P08684);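 also: CYP3A4 tested as one member of a cytochrome P450 panel screen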
[7] = luciferase reporter signal suppression in cells – H4 neuroglioma cells, luminescence, dose response (AID 1990); type: functional, cell-based
[8] = Luminescence Cell-Based Dose Response HTS to Identify Inhibitors of 5'UTR Stem-Loop Driven Prion Protein mRNA Translation in H4 Neuroglioblastoma Cells. [Related pubchem assays: 1827 (Project Summary), 1813 (Primary HTS)]; type: functional
[9] = alpha-synuclein stem-loop luciferase translation blockers – H4 neuroglioma cells, luminescence, confirmation (AID 1988); type: functional, cell-based
[10] = test system: HEK293; experiment: EBV LMP1 TES2 canonical NF-kB signalling blockers – cell-based, HEK293, luciferase, cherry-pick, dose response (AID 588343); type: functional; conditions: Homo sapiens
[11] = blockers of bursicon-stimulated LGR2 cAMP reporter – cell-based, HEK293, CRE-luciferase reporter, cherry pick, set 2, dose response (AID 743343); type: functional;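 also: transfected cells were stimulated with diluted bursicon conditioned medium after compound addition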
[12] = blockade of melanocortin 4 receptor signaling – cell-based, plate reader, cherry pick, counter-screen for LGR2 antagonist project, dose response (AID 743444); type: functional;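 also: transfected HEK 293 cells stimulated with alpha-MSH peptide; potency of inhibitors of the alpha-MSH evoked signal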
[13] = NIH-3T3 fibroblast cytotoxicity, dose response, cytotoxicity control, cell-based, fluorescence, Alamar Blue, secondary assay (AID 2327); type: functional;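 also: NIH-3T3 mouse fibroblasts cultured with fluconazole at 8 µg/mL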
[14] = fluconazole-exposed Candida albicans growth modulators – fluorescence, retest, confirmation (AID 2467); type: functional, cell-based
[15] = molecular target: Mitogen-activated protein kinase 10 (Homo sapiens, UniProt P53779); experiment: Dose response biochemical screening assay for inhibitors of c-Jun N-Terminal Kinase 3 (JNK3). [Related pubchem assays: 746 ]
[16] = molecular target: T2, Cytochrome P450 3A4; remark: listed apart in the source
[17] = molecular target: Cytochrome P450 2D6 (Homo sapiens, UniProt P10635);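 also: CYP2D6 member of a cytochrome P450 panel assay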
[18] = molecular target: T3, Mannose-6-phosphate isomerase (Homo sapiens, UniProt P34949); experiment: MPI inhibition at elevated mannose 6-phosphate – biochemical, fluorescence intensity, high mannose 6-phosphate, primary screen (AID 1220)
T3 sequence (P34949 whole entry): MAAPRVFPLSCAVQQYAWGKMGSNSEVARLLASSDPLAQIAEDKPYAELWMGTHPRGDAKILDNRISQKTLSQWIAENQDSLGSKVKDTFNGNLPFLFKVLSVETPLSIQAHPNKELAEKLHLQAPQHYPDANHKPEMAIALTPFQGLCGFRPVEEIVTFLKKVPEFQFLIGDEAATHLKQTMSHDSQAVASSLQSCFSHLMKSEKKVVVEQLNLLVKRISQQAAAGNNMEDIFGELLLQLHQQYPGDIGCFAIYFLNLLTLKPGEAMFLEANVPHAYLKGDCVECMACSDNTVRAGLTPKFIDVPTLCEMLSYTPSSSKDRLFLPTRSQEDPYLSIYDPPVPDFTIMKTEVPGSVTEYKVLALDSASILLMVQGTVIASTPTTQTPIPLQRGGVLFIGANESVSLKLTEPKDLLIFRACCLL

[19] = test system: HeLa; experiment: ATP-based viability loss in HeLa cells – cell-based, CellTiter-Glo luminescence, cherry-pick samples, cytotoxicity control for MITF activator project, dose response (AID 540259); type: functional; conditions: Homo sapiens
[20] = test system: Escherichia coli; experiment: microbe, parasite or virus in culture
[21] = blockers of HIV-1 envelope-mediated cell-cell fusion – cherry-pick, dose response (AID 652057); type: functional, cell-based
[22] = viability loss in CEM21 cells – cell-based, CellTiter-Glo luminescence, cherry-picked, cytotoxicity control for viral fusion inhibitor project, dose response (AID 652042); type: functional;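 also: potency for signal decrease meaning cytotoxicity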
[23] = blockers of HIV-1 ZM109 envelope-driven cell-cell fusion – HeLa effector, CEM target cells, luciferase, cherry-pick, dose response (AID 652058); type: functional, cell-based;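 also: luciferase signal from HIV-1 Env mediated cell-cell fusion of effector and target cells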
[24] = off-target signal loss in HeLa-CEM21 co-culture – HeLa F-luc CTL cells, cherry-picked, counter-screen for HIV-1 Env fusion inhibitor project, dose response (AID 652040); type: functional, cell-based;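 also: potency for signal decrease marking cytotoxic or nonspecific inhibition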
[25] = HIV-1 AD8 envelope cell-cell fusion blockers – cherry-pick, dose response (AID 652062); type: functional, cell-based;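 also: luciferase signal from cell-cell fusion driven by HIV-1 clade B AD8 Env; potency is for inhibitors of fusion seen as a drop in luminescence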
[26] = Luminescence Cell-Based Dose Confirmation HTS to Identify Activators of 5'UTR Stem-Loop Driven Alpha-Synuclein mRNA Translation in H4 Neuroglioblastoma Cells. [Related pubchem assays: 1829 (Project Summary), 1814 (Primary HTS)]; type: functional
[27] = Luminescence Cell-Based Dose Response HTS to Identify Activators of Luciferase Translation or Activity in H4 […] Cells. [Related pubchem assays: 1829 (Project Summary), 1814 (Primary HTS)]; type: functional
[28] = test system: H4; experiment: Luminescence Cell-Based Dose Response HTS to Identify Activators of 5'UTR Stem-Loop Driven Prion Protein mRNA Translation in H4 Neuroglioblastoma Cells. [Related pubchem assays: 1829 (Project Summary), 1814 (Primary HTS)]; type: functional; conditions: Homo sapiens
[29] = molecular target: Induced myeloid leukemia cell differentiation protein Mcl-1 (Homo sapiens, UniProt Q07820); type: functional
[30] = molecular target: T4, Oxysterols receptor LXR-beta (Homo sapiens, UniProt P55055); type: functional, cell-based;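 also: Cell-based luminescence dose-response assay of agonist activity at LXR, run as a confirmatory counterscreen to a daf-12 agonist screen; HEK293 cells with Gal4-LXR fusion and GAL4-driven luciferase reporter; agonist potency from rising luciferase signal of a Gal4-LXR reporter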
T4 sequence (P55055 whole entry): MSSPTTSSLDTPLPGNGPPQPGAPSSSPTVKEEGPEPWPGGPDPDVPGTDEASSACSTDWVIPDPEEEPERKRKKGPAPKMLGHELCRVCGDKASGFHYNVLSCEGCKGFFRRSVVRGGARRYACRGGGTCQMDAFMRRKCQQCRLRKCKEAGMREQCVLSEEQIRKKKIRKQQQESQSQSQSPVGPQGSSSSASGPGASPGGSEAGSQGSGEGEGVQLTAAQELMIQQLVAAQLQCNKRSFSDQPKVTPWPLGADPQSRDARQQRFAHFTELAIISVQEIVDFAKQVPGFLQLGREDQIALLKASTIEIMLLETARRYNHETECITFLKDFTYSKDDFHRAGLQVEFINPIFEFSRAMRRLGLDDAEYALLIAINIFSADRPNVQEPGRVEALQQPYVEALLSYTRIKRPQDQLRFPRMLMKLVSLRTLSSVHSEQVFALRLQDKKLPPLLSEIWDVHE

[31] = cells
[32] = molecular target: Cytochrome P450 2C19 (Homo sapiens, UniProt P33261); experiment: Cytochrome panel assay with activity outcomes. Panel member name: p450-cyp2c19 Compounds with AC50 equal or less than 10 uM are considered active; type: functional
[33] = test system: Streptococcus sp. 'group A'; experiment: Streptococcus pyogenes SK(-)GAS viability under kanamycin – luminescence, BacTiterGlo, confirmation, counter-screen for streptokinase expression inhibitor project, dose response (AID 1900); type: functional, organism-based
[34] = test system: Streptococcus; experiment: GAS UMAA2166 growth inhibition – luminescence, BacTiterGlo, counter-screen for streptokinase expression inhibitor project, dose response (AID 1915); type: functional, organism-based;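 also: potency for reduction of bacterial viability or growth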
[35] = molecular target: Cytochrome P450 2C9 (Homo sapiens, UniProt P11712)
[36] = molecular target: Luciferin 4-monooxygenase (Photinus pyralis, UniProt P08659); experiment: inhibition of purified Photinus pyralis luciferase – biochemical, luminescence, dose response (AID 1891)
[37] = Luminescence Cell-Based Dose Confirmation HTS to Identify Inhibitors of Platelet Dense Granule Release. [Related pubchem assays: 1663 (Primary HTS), 1678 (Summary of Project)]; type: functional
[38] = molecular target: Glucose-6-phosphate 1-dehydrogenase (Homo sapiens, UniProt P11413); experiment: inhibition of Homo sapiens G6PD, dose series – biochemical, fluorescence, selectivity assay for P. falciparum G6PD inhibitor project, dose response (AID 504792); type: functional
Glucose-6-phosphate 1-dehydrogenase, sequence (P11413 whole entry): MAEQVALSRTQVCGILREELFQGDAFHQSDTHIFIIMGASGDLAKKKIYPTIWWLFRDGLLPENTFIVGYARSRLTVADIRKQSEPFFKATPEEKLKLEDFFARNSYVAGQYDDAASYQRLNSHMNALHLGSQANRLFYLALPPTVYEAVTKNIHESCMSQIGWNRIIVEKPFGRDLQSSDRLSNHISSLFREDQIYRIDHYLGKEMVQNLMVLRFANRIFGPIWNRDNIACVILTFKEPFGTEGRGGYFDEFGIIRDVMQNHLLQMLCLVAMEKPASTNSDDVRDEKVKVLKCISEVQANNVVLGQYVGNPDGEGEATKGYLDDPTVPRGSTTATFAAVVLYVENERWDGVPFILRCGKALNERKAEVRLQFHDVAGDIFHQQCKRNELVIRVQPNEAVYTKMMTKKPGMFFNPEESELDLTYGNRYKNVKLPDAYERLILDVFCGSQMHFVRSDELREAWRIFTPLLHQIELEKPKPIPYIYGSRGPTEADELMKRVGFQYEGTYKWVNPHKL

T2 sequence (P08684 whole entry): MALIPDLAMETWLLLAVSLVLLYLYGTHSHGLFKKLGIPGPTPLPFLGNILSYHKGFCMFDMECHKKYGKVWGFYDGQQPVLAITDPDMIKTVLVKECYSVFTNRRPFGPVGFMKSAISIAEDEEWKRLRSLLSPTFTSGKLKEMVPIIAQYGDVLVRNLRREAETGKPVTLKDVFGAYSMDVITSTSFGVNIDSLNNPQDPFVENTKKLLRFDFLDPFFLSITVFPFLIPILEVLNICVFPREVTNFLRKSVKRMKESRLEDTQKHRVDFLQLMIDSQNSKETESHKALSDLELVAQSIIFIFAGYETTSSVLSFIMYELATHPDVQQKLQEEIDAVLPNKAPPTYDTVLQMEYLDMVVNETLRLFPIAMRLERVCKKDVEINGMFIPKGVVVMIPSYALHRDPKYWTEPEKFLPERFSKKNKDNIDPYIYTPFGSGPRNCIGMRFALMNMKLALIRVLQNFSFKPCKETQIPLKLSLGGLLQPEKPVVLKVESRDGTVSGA
Mitogen-activated protein kinase 10, sequence (P53779 whole entry): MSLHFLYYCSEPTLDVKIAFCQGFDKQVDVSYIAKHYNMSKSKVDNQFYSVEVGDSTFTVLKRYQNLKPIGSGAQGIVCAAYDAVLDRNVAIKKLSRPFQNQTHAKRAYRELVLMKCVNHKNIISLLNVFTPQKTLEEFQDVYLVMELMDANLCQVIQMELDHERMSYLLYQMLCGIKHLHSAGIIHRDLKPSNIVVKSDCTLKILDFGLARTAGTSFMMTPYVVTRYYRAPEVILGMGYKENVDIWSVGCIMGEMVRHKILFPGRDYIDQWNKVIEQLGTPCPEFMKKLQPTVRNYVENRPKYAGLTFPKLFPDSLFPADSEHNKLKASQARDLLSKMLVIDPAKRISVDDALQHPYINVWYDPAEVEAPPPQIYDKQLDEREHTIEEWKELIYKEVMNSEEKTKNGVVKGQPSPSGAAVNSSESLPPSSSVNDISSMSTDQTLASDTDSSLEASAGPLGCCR
Cytochrome P450 2D6, sequence (P10635 whole entry): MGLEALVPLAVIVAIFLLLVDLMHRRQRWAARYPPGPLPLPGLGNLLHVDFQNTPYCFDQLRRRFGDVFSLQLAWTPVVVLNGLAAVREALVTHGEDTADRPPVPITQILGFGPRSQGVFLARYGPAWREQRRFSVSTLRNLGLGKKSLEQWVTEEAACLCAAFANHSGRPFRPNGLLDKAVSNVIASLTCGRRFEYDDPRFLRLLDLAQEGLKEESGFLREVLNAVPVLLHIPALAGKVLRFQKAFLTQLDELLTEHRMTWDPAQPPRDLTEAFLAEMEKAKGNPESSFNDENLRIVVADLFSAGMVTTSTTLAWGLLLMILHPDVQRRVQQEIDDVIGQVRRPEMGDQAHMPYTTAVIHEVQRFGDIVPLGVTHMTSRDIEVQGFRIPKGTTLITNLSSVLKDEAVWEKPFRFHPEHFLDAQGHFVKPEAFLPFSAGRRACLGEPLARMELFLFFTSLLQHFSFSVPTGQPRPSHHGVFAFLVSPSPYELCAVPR
Cytochrome P450 2C19, sequence (P33261 whole entry): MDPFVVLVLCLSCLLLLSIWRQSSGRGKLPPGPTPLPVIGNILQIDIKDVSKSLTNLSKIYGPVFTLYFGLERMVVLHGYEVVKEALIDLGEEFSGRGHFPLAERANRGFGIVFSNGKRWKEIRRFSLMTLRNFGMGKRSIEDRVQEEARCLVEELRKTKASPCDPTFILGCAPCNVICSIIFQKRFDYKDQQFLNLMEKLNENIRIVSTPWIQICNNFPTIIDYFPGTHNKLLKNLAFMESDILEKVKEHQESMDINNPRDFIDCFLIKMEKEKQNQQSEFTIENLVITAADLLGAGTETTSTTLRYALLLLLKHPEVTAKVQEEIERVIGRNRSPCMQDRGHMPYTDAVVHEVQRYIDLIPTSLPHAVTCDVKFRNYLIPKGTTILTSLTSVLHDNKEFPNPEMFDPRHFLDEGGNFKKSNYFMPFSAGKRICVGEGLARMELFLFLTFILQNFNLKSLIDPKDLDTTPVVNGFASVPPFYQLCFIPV
Induced myeloid leukemia cell differentiation protein Mcl-1, sequence (Q07820 whole entry, the tested form may be a part): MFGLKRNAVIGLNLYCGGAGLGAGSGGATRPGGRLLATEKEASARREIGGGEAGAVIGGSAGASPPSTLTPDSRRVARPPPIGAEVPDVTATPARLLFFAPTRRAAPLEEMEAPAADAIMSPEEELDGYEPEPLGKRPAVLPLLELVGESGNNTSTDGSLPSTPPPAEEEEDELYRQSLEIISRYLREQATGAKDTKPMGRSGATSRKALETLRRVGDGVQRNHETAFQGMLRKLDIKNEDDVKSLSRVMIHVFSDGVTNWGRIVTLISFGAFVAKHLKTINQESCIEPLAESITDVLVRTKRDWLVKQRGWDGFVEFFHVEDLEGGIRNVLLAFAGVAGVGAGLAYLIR
Luciferin 4-monooxygenase, sequence (P08659 whole entry): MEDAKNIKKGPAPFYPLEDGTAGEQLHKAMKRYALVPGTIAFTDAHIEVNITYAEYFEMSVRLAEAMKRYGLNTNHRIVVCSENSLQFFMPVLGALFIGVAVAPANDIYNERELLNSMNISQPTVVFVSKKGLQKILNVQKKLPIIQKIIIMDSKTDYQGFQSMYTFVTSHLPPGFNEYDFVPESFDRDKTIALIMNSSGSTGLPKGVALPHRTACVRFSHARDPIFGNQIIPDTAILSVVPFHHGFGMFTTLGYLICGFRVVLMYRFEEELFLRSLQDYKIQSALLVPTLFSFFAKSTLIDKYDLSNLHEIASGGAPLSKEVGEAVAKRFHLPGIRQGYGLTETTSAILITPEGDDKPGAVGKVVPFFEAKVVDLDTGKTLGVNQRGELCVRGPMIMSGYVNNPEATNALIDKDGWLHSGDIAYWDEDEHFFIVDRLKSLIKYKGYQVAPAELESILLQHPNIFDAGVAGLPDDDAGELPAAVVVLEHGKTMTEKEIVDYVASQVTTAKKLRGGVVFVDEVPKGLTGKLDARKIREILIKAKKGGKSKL
Cytochrome P450 2C9, sequence (P11712 whole entry): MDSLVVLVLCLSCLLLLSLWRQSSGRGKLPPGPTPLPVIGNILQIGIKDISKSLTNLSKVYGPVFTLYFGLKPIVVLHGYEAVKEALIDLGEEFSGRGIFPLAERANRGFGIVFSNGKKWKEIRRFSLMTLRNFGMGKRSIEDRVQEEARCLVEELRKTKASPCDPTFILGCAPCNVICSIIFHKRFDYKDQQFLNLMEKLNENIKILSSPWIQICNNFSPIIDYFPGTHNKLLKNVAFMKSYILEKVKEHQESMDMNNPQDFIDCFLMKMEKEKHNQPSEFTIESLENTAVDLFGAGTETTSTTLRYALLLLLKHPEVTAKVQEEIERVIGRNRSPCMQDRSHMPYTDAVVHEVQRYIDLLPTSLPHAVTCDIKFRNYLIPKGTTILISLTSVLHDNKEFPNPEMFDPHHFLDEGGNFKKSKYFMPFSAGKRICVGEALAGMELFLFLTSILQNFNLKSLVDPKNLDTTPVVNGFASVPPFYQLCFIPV

O=C(Nc1cc(C(F)(F)F)ccc1-n1cncn1)c1ccc([N+](=O)[O-])o1
CC50 [1]: 6.96 µM (active) | CC50 [2]: 37.3 µM (active) | CC50 [3]: 8.89 µM (active) | IC50 [4]: 19.8 µM (active) | IC50 [5]: 11 µM (active)

CN1[C@@H]2CC[C@H]1CC(NC(=O)c1nn(C)c3ccccc13)C2 (stereo partly drawn)
AC50 [6]: inconclusive

CCOC(=O)c1cn2nc(N3CCCC3)ccc2n1
EC50 [7]: 8.17 µM (inconclusive) | EC50 [8]: 2.56 µM (active) | EC50 [9]: 5.55 µM (active) | AC50 [10]: 3.17 µM (active) | AC50 [11]: 5.94 µM (active) | AC50 [12]: 5.54 µM (active)

COc1cc(CC(=O)Nc2nccs2)cc(OC)c1OC
EC50 [13]: > 160 µM (inactive) | EC50 [14]: > 38 µM (not active) | IC50 [15]: > 93.1 µM (not active)

O=C1CCCCCC1C1(O)C(=O)Nc2ccc(Br)cc21 (stereo not drawn)
AC50 [16]: 17.8 µM (inconclusive) | AC50 [17]: inconclusive

O=C(CNc1cccc2ccccc12)N/N=C/C=C/c1ccco1
IC50 [18]: > 50 µM (not active)

O=C(Nc1ccccn1)c1ccccc1
AC50 [19]: 83.2 µM (active)

O=C(c1ccccc1)N1CCN(c2nc3ccc([N+](=O)[O-])cc3s2)CC1
AC50 [20]: 28.7 µM (active)

O=C(Oc1ccccc1)N1CCC2(CC1)CCN(c1ncccn1)CC2
AC50 [6]: inconclusive

COc1ccc(C(=O)Nc2ccc3c4c(cccc24)CC3)cc1
AC50 [19]: 73.4 µM (active)

COc1cc2c(C)nc3c(cnn3-c3ccccc3)c2cc1OC
AC50 [19]: 86.7 µM (active)

COc1cccc(-c2nnc3sc(C4CCCCC4)nn23)c1
AC50 [10]: 17 µM (active) | AC50 [21]: 4.26 µM (active) | AC50 [22]: 30 µM (active) | AC50 [23]: 5.07 µM (active) | AC50 [24]: 3.63 µM (active) | AC50 [25]: 3.09 µM (active)

COc1ccc(/N=C2\SC(C(=O)O)CC(=O)N2Cc2ccc(OC)c(OC)c2)cc1 (stereo not drawn)
AC50 [20]: 86.2 µM (active)

COc1ccc(/C=C2\N=C(C)OC2=O)cc1[N+](=O)[O-]
AC50 [10]: 237 µM (active)

Cc1nn(-c2ccccc2)c2c1C(O)n1c(nc3ccccc31)S2 (stereo not drawn)
EC50 [26]: > 120 µM (not active) | EC50 [27]: > 120 µM (not active) | EC50 [28]: > 120 µM (not active) | IC50 [15]: > 93.1 µM (not active)

Cc1ccc(-n2nc3cc(C)c(N)cc3n2)cc1
IC50 [29]: 7.02 µM (active) | IC50 [18]: > 50 µM (not active) | EC50 [30]: > 67.5 µM (inactive) | EC50 [31]: > 67.5 µM (inactive)

CCc1ccc(/C=N/NC(=O)c2ccccn2)cc1
IC50 [4]: 5.9 µM (active) | AC50 [10]: 3.11 µM (active)

O=C1C(/C=N/c2ccccc2O)=C(O)c2ccccc21
IC50 [15]: 23.1 µM (not active) | EC50 [30]: > 67.5 µM (inactive) | EC50 [31]: > 67.5 µM (inactive)

CCCN1CCN(C(=O)CN2C(=O)CC(C)(C)S(=O)(=O)c3ccccc32)CC1
AC50 [32]: inconclusive | AC50 [16]: 12.6 µM (inconclusive) | AC50 [17]: inconclusive

CNC(=O)CNC(=O)Nc1ccc(C)cc1
AC50 [20]: 29.8 µM (active)

CN1CCN(c2cc3c(cc2F)c(=O)c(C(=O)O)cn3CCF)CC1
EC50 [33]: 5.58 µM (active) | EC50 [34]: 7.64 µM (active) | IC50 [4]: 3.08 µM (active) | AC50 [20]: 2.57 µM (active)

COC(=O)c1ccccc1NC(=O)c1c(Br)cnn1C
AC50 [6]: inconclusive | AC50 [35]: inconclusive

CC(C)(C)NC(=O)COc1ccc(CNc2ccc3[nH]c(O)nc3c2)cc1
EC50 [36]: > 112 µM (not active) | EC50 [37]: 17.9 µM (active) | IC50 [18]: > 50 µM (not active) | IC50 [38]: 64.6 µM (inactive)

— ChEMBL document CHEMBL1201862, “PubChem BioAssay data set” (2004)
